Assay results reported in patent publication US12077503B2, “Substituted cyclic amides and their use as herbicides” (FMC CORPORATION, priority 2015, dated 2024).

How the values were obtained:
Assay type in all cases: in vivo
[1] = system: velvetleaf (Abutilon theophrasti); assay: Test G Pre-Emergence Protocol; conditions: Abutilon theophrasti, pre-emergence, 312 h, evaluated after 13 days; for pest or weed control at 15.625 g/ha: 15.625 g ai/ha; for pest or weed control at 15.625 g/ha / pest or weed control at 250 g/ha: read-out: Velvetleaf damage rating (100=total damage to plant; 0=no damage to plant); for pest or weed control at 62.5 g/ha: 62.5 g ai/ha, 100=total damage to plant, 0=no damage to plant, read-out: Velvetleaf damage rating; for pest or weed control at 250 g/ha: 250 g ai/ha
In short: (§1)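 Test compound in 0.5% Tween 20 acetone/water (50:50) was applied at three rates (15.625, 62.5, 250 g/ha) to soil sown one day earlier. After 13 days plants were scored for injury, where 0 means unaffected and 100 means completely damaged.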

[2] = system: ivy-leaved morning glory (Ipomoea hederacea); assay: Test G Pre-Emergence Protocol; conditions: Ipomoea, pre-emergence, 312 h, evaluated after 13 days; for pest or weed control at 15.625 g/ha: 15.625 g ai/ha; for pest or weed control at 15.625 g/ha / pest or weed control at 250 g/ha: read-out: Morningglory, Ivy-leaved damage rating (100=total damage to plant; 0=no damage to plant); for pest or weed control at 62.5 g/ha: 62.5 g ai/ha, 100=total damage to plant, 0=no damage to plant, read-out: Morningglory, Ivy-leaved damage rating; for pest or weed control at 250 g/ha: 250 g ai/ha
In short: as §1

[3] = system: redroot pigweed (Amaranthus retroflexus); assay: Test G Pre-Emergence Protocol; conditions: Amaranthus retroflexus, pre-emergence, 312 h, evaluated after 13 days; for pest or weed control at 15.625 g/ha: 15.625 g ai/ha; for pest or weed control at 15.625 g/ha / pest or weed control at 250 g/ha: read-out: Pigweed, Redroot damage rating (100=total damage to plant; 0=no damage to plant); for pest or weed control at 62.5 g/ha: 62.5 g ai/ha, 100=total damage to plant, 0=no damage to plant, read-out: Pigweed, Redroot damage rating; for pest or weed control at 250 g/ha: 250 g ai/ha
In short: as §1

[4] = system: giant foxtail (Setaria faberi); assay: Test G Pre-Emergence Protocol; conditions: Setaria faberi, pre-emergence, 312 h, evaluated after 13 days; for pest or weed control at 15.625 g/ha: 15.625 g ai/ha; for pest or weed control at 15.625 g/ha / pest or weed control at 250 g/ha: read-out: Foxtail, Giant damage rating (100=total damage to plant; 0=no damage to plant); for pest or weed control at 62.5 g/ha: 62.5 g ai/ha, 100=total damage to plant, 0=no damage to plant, read-out: Foxtail, Giant damage rating; for pest or weed control at 250 g/ha: 250 g ai/ha
In short: as §1

[5] = system: barnyardgrass (Echinochloa crus-galli); assay: Test G Pre-Emergence Protocol; conditions: Echinochloa crus-galli, pre-emergence, 312 h, evaluated after 13 days; for pest or weed control at 15.625 g/ha: 15.625 g ai/ha; for pest or weed control at 15.625 g/ha / pest or weed control at 250 g/ha: read-out: Barnyardgrass damage rating (100=total damage to plant; 0=no damage to plant); for pest or weed control at 62.5 g/ha: 62.5 g ai/ha, 100=total damage to plant, 0=no damage to plant, read-out: Barnyardgrass damage rating; for pest or weed control at 250 g/ha: 250 g ai/ha
In short: as §1

corn (Zea mays) [6] = assay: Test G Pre-Emergence Protocol; conditions: Zea mays, pre-emergence, 312 h, evaluated after 13 days; for plant injury at 15.625 g/ha: 15.625 g ai/ha; for plant injury at 15.625 g/ha / plant injury at 250 g/ha: read-out: Corn damage rating (100=total damage to plant; 0=no damage to plant); for plant injury at 62.5 g/ha: 62.5 g ai/ha, 100=total damage to plant, 0=no damage to plant, read-out: Corn damage rating; for plant injury at 250 g/ha: 250 g ai/ha
In short: as §1

[7] = system: velvetleaf (Abutilon theophrasti); assay: Test G Post-Emergence Protocol; conditions: Abutilon theophrasti, post-emergence, 312 h, read-out: Velvetleaf damage rating; for pest or weed control at 15.625 g/ha: 15.625 g ai/ha, evaluated after 13 days (100=total damage to plant; 0=no damage to plant); for pest or weed control at 62.5 g/ha: 62.5 g ai/ha; for pest or weed control at 62.5 g/ha / pest or weed control at 250 g/ha: evaluated after 13 days, 100=total damage to plant, 0=no damage to plant; for pest or weed control at 250 g/ha: 250 g ai/ha
In short: (§2)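 Sow in soil; grow 8 d (24/16 °C, 14 h light, 65% humidity); spray 15.625/62.5/250 g/ha in acetone:water 50:50 + 0.5% Tween 20; grow on, water twice daily; score damage 0–100 at 13 d.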

[8] = system: ivy-leaved morning glory (Ipomoea hederacea); assay: Test G Post-Emergence Protocol; conditions: Ipomoea, post-emergence, 312 h, read-out: Morningglory, Ivy-leaved damage rating; for pest or weed control at 15.625 g/ha: 15.625 g ai/ha, evaluated after 13 days (100=total damage to plant; 0=no damage to plant); for pest or weed control at 62.5 g/ha: 62.5 g ai/ha; for pest or weed control at 62.5 g/ha / pest or weed control at 250 g/ha: evaluated after 13 days, 100=total damage to plant, 0=no damage to plant; for pest or weed control at 250 g/ha: 250 g ai/ha
In short: as §2

[9] = system: redroot pigweed (Amaranthus retroflexus); assay: Test G Post-Emergence Protocol; conditions: Amaranthus retroflexus, post-emergence, 312 h, read-out: Pigweed, Redroot damage rating; for pest or weed control at 15.625 g/ha: 15.625 g ai/ha, evaluated after 13 days (100=total damage to plant; 0=no damage to plant); for pest or weed control at 62.5 g/ha: 62.5 g ai/ha; for pest or weed control at 62.5 g/ha / pest or weed control at 250 g/ha: evaluated after 13 days, 100=total damage to plant, 0=no damage to plant; for pest or weed control at 250 g/ha: 250 g ai/ha
In short: as §2

[10] = system: giant foxtail (Setaria faberi); assay: Test G Post-Emergence Protocol; conditions: Setaria faberi, post-emergence, 312 h, read-out: Foxtail, Giant damage rating; for pest or weed control at 15.625 g/ha: 15.625 g ai/ha, evaluated after 13 days (100=total damage to plant; 0=no damage to plant); for pest or weed control at 62.5 g/ha: 62.5 g ai/ha; for pest or weed control at 62.5 g/ha / pest or weed control at 250 g/ha: evaluated after 13 days, 100=total damage to plant, 0=no damage to plant; for pest or weed control at 250 g/ha: 250 g ai/ha
In short: as §2

[11] = system: barnyardgrass (Echinochloa crus-galli); assay: Test G Post-Emergence Protocol; conditions: Echinochloa crus-galli, post-emergence, 312 h, read-out: Barnyardgrass damage rating; for pest or weed control at 15.625 g/ha: 15.625 g ai/ha, evaluated after 13 days (100=total damage to plant; 0=no damage to plant); for pest or weed control at 62.5 g/ha: 62.5 g ai/ha; for pest or weed control at 62.5 g/ha / pest or weed control at 250 g/ha: evaluated after 13 days, 100=total damage to plant, 0=no damage to plant; for pest or weed control at 250 g/ha: 250 g ai/ha
In short: as §2

corn (Zea mays) [12] = assay: Test G Post-Emergence Protocol; conditions: Zea mays, post-emergence, 312 h, read-out: Corn damage rating; for plant injury at 15.625 g/ha: 15.625 g ai/ha, evaluated after 13 days (100=total damage to plant; 0=no damage to plant); for plant injury at 62.5 g/ha: 62.5 g ai/ha; for plant injury at 62.5 g/ha / plant injury at 250 g/ha: evaluated after 13 days, 100=total damage to plant, 0=no damage to plant; for plant injury at 250 g/ha: 250 g ai/ha
In short: as §2

Compound | pest or weed control at 15.625 g/ha [1] | pest or weed control at 62.5 g/ha [1] | pest or weed control at 250 g/ha [1] | pest or weed control at 15.625 g/ha [2] | pest or weed control at 62.5 g/ha [2] | pest or weed control at 250 g/ha [2] | pest or weed control at 15.625 g/ha [3] | pest or weed control at 62.5 g/ha [3] | pest or weed control at 250 g/ha [3] | pest or weed control at 15.625 g/ha [4] | pest or weed control at 62.5 g/ha [4] | pest or weed control at 250 g/ha [4] | pest or weed control at 15.625 g/ha [5] | pest or weed control at 62.5 g/ha [5] | pest or weed control at 250 g/ha [5] | plant injury at 15.625 g/ha (corn (Zea mays) [6]) | plant injury at 62.5 g/ha (corn (Zea mays) [6]) | plant injury at 250 g/ha (corn (Zea mays) [6]) | pest or weed control at 15.625 g/ha [7] | pest or weed control at 62.5 g/ha [7] | further results
Cc1cccc(NC(=O)[C@H]2C(=O)N(C)C[C@@H]2c2ccc(C(F)(F)F)cc2)[n+]1[O-] (racemic) [Compound 1805] | 0% | 20% | 20% | 0% | 0% | 0% | 20% | 10% | 30% | 0% | 0% | 10% | 0% | 0% | 0% | 0% | 0% | 0% | 0% | 20% | pest or weed control at 250 g/ha [7]: 30%; pest or weed control at 15.625 g/ha [8]: 0%; pest or weed control at 62.5 g/ha [8]: 30%; pest or weed control at 250 g/ha [8]: 30%; pest or weed control at 15.625 g/ha [9]: 10%; pest or weed control at 62.5 g/ha [9]: 60%; pest or weed control at 250 g/ha [9]: 40%; pest or weed control at 15.625 g/ha [10]: 0%; pest or weed control at 62.5 g/ha [10]: 30%; pest or weed control at 250 g/ha [10]: 40%; pest or weed control at 15.625 g/ha [11]: 0%; pest or weed control at 62.5 g/ha [11]: 0%; pest or weed control at 250 g/ha [11]: 0%; plant injury at 15.625 g/ha (corn (Zea mays) [12]): 0%; plant injury at 62.5 g/ha (corn (Zea mays) [12]): 0%; plant injury at 250 g/ha (corn (Zea mays) [12]): 0%
CN1C[C@H](c2ccc(F)c(C#N)c2)[C@@H](C(=O)Nc2ccccc2S(C)(=O)=O)C1=O (racemic) [Compound 1798] | 0% | 0% | 10% | 0% | 0% | 0% | 0% | 0% | 20% | 0% | 10% | 30% | 0% | 0% | 10% | 0% | 0% | 0% | 0% | 0% | pest or weed control at 250 g/ha [7]: 0%; pest or weed control at 15.625 g/ha [8]: 0%; pest or weed control at 62.5 g/ha [8]: 0%; pest or weed control at 250 g/ha [8]: 0%; pest or weed control at 15.625 g/ha [9]: 0%; pest or weed control at 62.5 g/ha [9]: 0%; pest or weed control at 250 g/ha [9]: 20%; pest or weed control at 15.625 g/ha [10]: 0%; pest or weed control at 62.5 g/ha [10]: 20%; pest or weed control at 250 g/ha [10]: 10%; pest or weed control at 15.625 g/ha [11]: 0%; pest or weed control at 62.5 g/ha [11]: 0%; pest or weed control at 250 g/ha [11]: 0%; plant injury at 15.625 g/ha (corn (Zea mays) [12]): 0%; plant injury at 62.5 g/ha (corn (Zea mays) [12]): 0%; plant injury at 250 g/ha (corn (Zea mays) [12]): 0%
CN1C[C@@H](c2ccc(CF)cc2)[C@H](C(=O)Nc2cccc(F)c2F)C1=O (racemic) [Compound 1822] | 0% | 60% | 80% | 0% | 20% | 80% | 0% | 60% | 80% | 90% | 90% | 90% | 70% | 90% | 90% | 0% | 20% | 70% | 0% | 30% | pest or weed control at 250 g/ha [7]: 40%; pest or weed control at 15.625 g/ha [8]: 20%; pest or weed control at 62.5 g/ha [8]: 10%; pest or weed control at 250 g/ha [8]: 30%; pest or weed control at 15.625 g/ha [9]: 0%; pest or weed control at 62.5 g/ha [9]: 10%; pest or weed control at 250 g/ha [9]: 30%; pest or weed control at 15.625 g/ha [10]: 70%; pest or weed control at 62.5 g/ha [10]: 80%; pest or weed control at 250 g/ha [10]: 80%; pest or weed control at 15.625 g/ha [11]: 70%; pest or weed control at 62.5 g/ha [11]: 80%; pest or weed control at 250 g/ha [11]: 80%; plant injury at 15.625 g/ha (corn (Zea mays) [12]): 0%; plant injury at 62.5 g/ha (corn (Zea mays) [12]): 40%; plant injury at 250 g/ha (corn (Zea mays) [12]): 60%
